Our source for the TGI and GI50 values is PubChem BioAssay (NCI).

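Briefly, cells in 96-well plates were exposed to five compound concentrations for 48 h, and endpoints were estimated by linear interpolation. At the GI50, growth is halved. The concentration for full growth arrest is given as TGI.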 Where only a bound is given, the exact number is not on record here.

Test systems include COLO 205 colon; HL-60(TB) leukemia; HOP-92 NSCLC; SF-268 CNS; UACC-257 melanoma; HT29 colon; SK-MEL-2 melanoma; TK-10 renal; NCI-H226 lung.
Common to all, as to assay: NCI anticancer screen, dose series, 48 h

Regarding `Cc1cc(NCCCCCCCCNc2cc(C)nc3cc(N(C)C)ccc23)c2ccc(N(C)C)cc2n1`, the TGI is 5.5 µM in the assay with COLO 205 colon; 6.11 µM with HL-60(TB) leukemia; 8.04 µM in the assay with HOP-92 NSCLC; 26.9 µM in the assay with SF-268 CNS; 23.1 µM in the assay on UACC-257 melanoma.

Turning to `O=S1(=O)CC#CC[C@@H](CO)[C@@H](CO)CC#CC1`, the TGI in the assay with HL-60(TB) leukemia was > 100 µM; in the assay with HOP-92 NSCLC, 90.3 µM; in the assay with HT29 colon, > 100 µM; with SK-MEL-2 melanoma, > 100 µM; with TK-10 renal, > 100 µM; with UACC-257 melanoma it was > 100 µM.

As to `CCCCCCCCCCCCCC(=O)OCC1OC(=O)C(O)C1O` (configuration not stated), the TGI in the assay with COLO 205 colon, with HL-60(TB) leukemia, in the assay with HOP-92 NSCLC, in the assay on HT29 colon, with NCI-H226 lung and in the assay on SF-268 CNS was > 100 µM each time. Further, the TGI in the assay with TK-10 renal and with UACC-257 melanoma was > 100 µM in each case.

Take `COC(=O)/C(=C1\OC(=O)C(c2ccc(Cl)cc2)=C1O)c1ccc(Cl)cc1`: the TGI was 45 µM with COLO 205 colon; 32.9 µM with HL-60(TB) leukemia; 50.4 µM in the assay on HOP-92 NSCLC; > 100 µM in the assay on HT29 colon; 58.5 µM in the assay with NCI-H226 lung; > 100 µM in the assay with SF-268 CNS. Moreover, the TGI with TK-10 renal came to 75.5 µM; in the assay with UACC-257 melanoma, 48.8 µM.

Take `O=S1c2ccccc2N=C(c2cccs2)CC1c1ccccc1O` (configuration not stated): the TGI in the assay on COLO 205 colon, in the assay with HL-60(TB) leukemia, in the assay on HT29 colon, in the assay with NCI-H226 lung, in the assay on SF-268 CNS and in the assay with SK-MEL-2 melanoma was > 100 µM throughout. Also, the TGI in the assay with TK-10 renal and with UACC-257 melanoma was > 100 µM in each case.

As for `O=c1[nH]c(C2CCCCC2)nc2ccc(Cl)cc12`, the TGI with COLO 205 colon, with HOP-92 NSCLC, in the assay on HT29 colon, in the assay on NCI-H226 lung, with SF-268 CNS and in the assay with SK-MEL-2 melanoma was > 100 µM throughout. Further, the TGI in the assay on TK-10 renal and in the assay on UACC-257 melanoma was > 100 µM throughout.

As to `CCn1c(C)nc([N+](=O)[O-])c1Sc1ncc[nH]1`, the TGI with COLO 205 colon, in the assay on HOP-92 NSCLC, with HT29 colon, with NCI-H226 lung, in the assay with SF-268 CNS and in the assay with SK-MEL-2 melanoma was > 100 µM throughout. Also, the TGI in the assay on TK-10 renal and in the assay with UACC-257 melanoma was > 100 µM in each case.

As to `Cc1ccccc1C1SCc2nc3ccccc3n21` (configuration not stated), the TGI with COLO 205 colon is > 100 µM; with HL-60(TB) leukemia, > 100 µM; in the assay on HOP-92 NSCLC, 49.5 µM; in the assay on NCI-H226 lung it was > 100 µM; in the assay on SF-268 CNS it was > 100 µM; in the assay with SK-MEL-2 melanoma, > 100 µM. Besides, the TGI in the assay with TK-10 renal and in the assay on UACC-257 melanoma was > 100 µM each time.

Turning to `O=Cc1cc2sc(C=O)cc2s1`, the TGI in the assay with COLO 205 colon was > 100 µM; in the assay on HL-60(TB) leukemia, > 100 µM; in the assay on HOP-92 NSCLC, > 100 µM; in the assay with HT29 colon it was > 100 µM; with NCI-H226 lung, 59.2 µM; with SF-268 CNS, > 100 µM. Besides, the TGI with TK-10 renal and with UACC-257 melanoma was > 100 µM each time.

Take `O=C1/C(=C/c2ccc(C(=O)O)cc2)CNC/C1=C\c1ccc(C(=O)O)cc1`: the TGI with COLO 205 colon, in the assay with HL-60(TB) leukemia, with HOP-92 NSCLC, with HT29 colon, in the assay with NCI-H226 lung and with SF-268 CNS was > 100 µM in each case. Moreover, the TGI in the assay with TK-10 renal and in the assay with UACC-257 melanoma was > 100 µM in each case.

`CCCCCCCC(=O)[O-].N.N.N.N.N.[Co+3].[O-][Cl+3]([O-])([O-])[O-]`: the GI50 in the assay with COLO 205 colon, in the assay on HL-60(TB) leukemia, in the assay with HOP-92 NSCLC, with HT29 colon, in the assay with SF-268 CNS and with SK-MEL-2 melanoma was > 100 µM each time. Also, the GI50 in the assay with TK-10 renal and with UACC-257 melanoma was > 100 µM in each case. The TGI in the assay on COLO 205 colon, with HL-60(TB) leukemia, with HOP-92 NSCLC, in the assay with HT29 colon, with SF-268 CNS and in the assay with SK-MEL-2 melanoma was > 100 µM in each case. The TGI in the assay with TK-10 renal and in the assay on UACC-257 melanoma was > 100 µM each time.

Regarding `CN1C(=O)CC(CC(=O)C2CCCCC2=O)CC1=O` (configuration not stated), the TGI in the assay on COLO 205 colon, in the assay on HL-60(TB) leukemia, with HOP-92 NSCLC, with HT29 colon, in the assay with NCI-H226 lung and with SF-268 CNS was > 100 µM throughout. The TGI with TK-10 renal and in the assay with UACC-257 melanoma was > 100 µM each time.

With `OCC1OC(NO)C(O)C(O)C1O` (configuration not stated), the TGI with COLO 205 colon, in the assay with HL-60(TB) leukemia, with HOP-92 NSCLC, in the assay on HT29 colon, with NCI-H226 lung and in the assay on SF-268 CNS was > 100 µM in each case. The TGI with TK-10 renal and with UACC-257 melanoma was > 100 µM throughout.
